Assay results published in the supplement of paper PMC10307832.

Tests used:
Assay in all cases: relative viability (nuclei count vs DMSO), 5 days (fraction); higher = more cells survive
201T = system: 201T
Method in brief: (§1)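 Values are medians from duplicate plates. Each reflects relative viability, defined as the nuclei count of treated wells over that of vehicle wells. Lung cancer cell lines in 1536-well plates were pin-tool dosed one day after seeding with one drug alone or with a fixed anchor-drug dose plus five library-drug doses (not always all listed) in √10 steps, then fixed, stained and imaged at 4× after 5 days.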

BEN = system: BEN
Method in brief: as §1

EPLC-272H = system: EPLC-272H
Method in brief: as §1

HCC-15 = system: HCC-15
Method in brief: as §1

HCC-78 = system: HCC-78
Method in brief: as §1

LCLC-97TM1 = system: LCLC-97TM1
Method in brief: as §1

LU99A = system: LU99A
Method in brief: as §1

NCI-H1355 = system: NCI-H1355
Method in brief: as §1

NCI-H1395 = system: NCI-H1395
Method in brief: as §1

NCI-H2009 = system: NCI-H2009
Method in brief: as §1

NCI-H2085 = system: NCI-H2085
Method in brief: as §1

NCI-H2126 = conditions: first compound 0.002 µM
Method in brief: as §1

## CCNC(=O)c1noc(-c2cc(C(C)C)c(O)cc2O)c1-c1ccc(CN2CCOCC2)cc1 [Luminespib] + Cc1nc(NC(=O)N2CCC[C@H]2C(N)=O)sc1-c1ccnc(C(C)(C)C(F)(F)F)c1 [Alpelisib] (partner 2 µM)
201T; first compound 0.002 µM
  relative viability: 0.965
201T; first compound 0.006325 µM
  relative viability: 1.01
201T; first compound 0.02 µM
  relative viability: 0.96
201T; first compound 0.06325 µM
  relative viability: 1.04
201T; first compound 0.2 µM
  relative viability: 1.03
BEN; first compound 0.002 µM
  relative viability: 1.1
BEN; first compound 0.006325 µM
  relative viability: 0.964
BEN; first compound 0.02 µM
  relative viability: 0.393
BEN; first compound 0.06325 µM
  relative viability: 0.709
BEN; first compound 0.2 µM
  relative viability: 0.224
EPLC-272H; first compound 0.006325 µM
  relative viability: 0.811
EPLC-272H; first compound 0.02 µM
  relative viability: 0.674
EPLC-272H; first compound 0.06325 µM
  relative viability: 0.879
EPLC-272H; first compound 0.2 µM
  relative viability: 0.93
HCC-15; first compound 0.002 µM
  relative viability: 0.964
HCC-15; first compound 0.006325 µM
  relative viability: 0.852
HCC-15; first compound 0.02 µM
  relative viability: 0.773
HCC-15; first compound 0.06325 µM
  relative viability: 0.54
HCC-15; first compound 0.2 µM
  relative viability: 0.492
HCC-78; first compound 0.002 µM
  relative viability: 0.309
HCC-78; first compound 0.06325 µM
  relative viability: 0.585
HCC-78; first compound 0.2 µM
  relative viability: 0.216
LCLC-97TM1; first compound 0.002 µM
  relative viability: 0.286
LCLC-97TM1; first compound 0.006325 µM
  relative viability: 0.254
LCLC-97TM1; first compound 0.02 µM
  relative viability: 0.19
LCLC-97TM1; first compound 0.06325 µM
  relative viability: 0.323
LCLC-97TM1; first compound 0.2 µM
  relative viability: 0.194
LU99A; first compound 0.002 µM
  relative viability: 0.534
LU99A; first compound 0.006325 µM
  relative viability: 0.526
LU99A; first compound 0.02 µM
  relative viability: 0.311
LU99A; first compound 0.06325 µM
  relative viability: 0.11
LU99A; first compound 0.2 µM
  relative viability: 0.0992
NCI-H1355; first compound 0.002 µM
  relative viability: 0.915
NCI-H1355; first compound 0.006325 µM
  relative viability: 0.913
NCI-H1355; first compound 0.02 µM
  relative viability: 0.403
NCI-H1355; first compound 0.06325 µM
  relative viability: 0.903
NCI-H1355; first compound 0.2 µM
  relative viability: 0.594
NCI-H1395; first compound 0.002 µM
  relative viability: 1.37
NCI-H1395; first compound 0.006325 µM
  relative viability: 1.03
NCI-H1395; first compound 0.02 µM
  relative viability: 1.17
NCI-H1395; first compound 0.06325 µM
  relative viability: 0.469
NCI-H1395; first compound 0.2 µM
  relative viability: 0.349
NCI-H2009; first compound 0.002 µM
  relative viability: 1.29
NCI-H2009; first compound 0.006325 µM
  relative viability: 1.02
NCI-H2009; first compound 0.02 µM
  relative viability: 1.28
NCI-H2009; first compound 0.06325 µM
  relative viability: 0.698
NCI-H2009; first compound 0.2 µM
  relative viability: 0.0841
NCI-H2085; first compound 0.002 µM
  relative viability: 0.967
NCI-H2085; first compound 0.006325 µM
  relative viability: 0.989
NCI-H2085; first compound 0.02 µM
  relative viability: 0.937
NCI-H2085; first compound 0.06325 µM
  relative viability: 0.542
NCI-H2085; first compound 0.2 µM
  relative viability: 0.397
NCI-H2126
  relative viability: 0.739
